Measured values as given in patent US8598354B2, “Compounds having antiparasitic or anti-infectious activity” (University of South Florida, priority 2008, dated 2013).

Assays:
P. falciparum = assay: In vitro antiplasmodial activity, MSF assay, strain not specified or all 3 strains together; assay type: cell-based, Plasmodium falciparum; conditions: for reduction of potency relative to ELQ-121: relative to ELQ-121, in vitro testing; for IC50: strain not stated, read-out: IC50 (effect of 3-position side chain length); for in vitro antiplasmodial activity (SAR remark in words): compared within the endochin series
Description: (§1) Plasmodium falciparum strains D6 and Dd2 were obtained from the MR4 (ATCC, Manassas, Va., USA). D6 is sensitive to chloroquine but mildly resistant to mefloquine while Dd2 is resistant to multiple quinoline and antifolate antimalarial agents. Tm90.C2B is resistant to atovaquone, chloroquine, mefloquine, and quinine.
Three different laboratory strains of P. falciparum were cultured in human erythrocytes by standard methods under a low oxygen atmosphere (5% O2, 5% CO2, 90% N2) in an environmental chamber as described in Trager, W., and J. B. Jensen. 1976. Human malaria parasites in continuous culture. Science 193:673-5. The culture medium was RPMI-1640, supplemented with 25 mM HEPES buffer, 25 mg/L gentamicin sulfate, 45 mg/L hypoxanthine, 10 mM glucose, 2 mM glutamine, and 0.5% Albumax II (complete medium). The parasites were maintained in fresh human erythrocytes suspended at a 2% hematocrit in complete medium at 37° C. Stock cultures were sub-passaged every 3 to 4 days by transfer of infected red cells to a flask containing complete medium and uninfected erythrocytes.
In vitro antimalarial activity of the compounds was assessed by the SYBR Green I fluorescence-based method (the “MSF assay”) described previously by Smilkstein, M., N. Sriwilaijaroen, J. X. Kelly, P. Wilairat, and M. Riscoe. 2004. Simple and inexpensive fluorescence-based technique for high-throughput antimalarial drug screening. Antimicrob Agents Chemother 48:1803-6 with minor modifications (Winter, R. W., J. X. Kelly, M. J. Smilkstein, R. Dodean, G. C. Bagby, R. K. Rathbun, J. I. Levin, D. Hinrichs, and M. K. Riscoe. 2006. Evaluation and lead optimization of anti-malarial acridones. Exp Parasitol 114:47-56). Experiments were set up in triplicate in 96 well plates (Costar, Corning) with two-fold dilutions of each drug across the plate in a total volume of 100 microliters and at a final red blood cell concentration of 2% (v/v). Stock solutions of each drug were prepared by dissolving in ethanol or dimethylsulfoxide (as appropriate) at 10 mM. […] Automated pipeting and dilution was carried out with the aid of a programmable Precision 2000 robotic station (BioTek, Winooski, Vt.). An initial parasitemia of 0.2% was attained by addition of normal uninfected red cells to a stock culture of asynchronous parasite infected red cells (PRBC). The plates were incubated for 72 hrs at 37° C. in an atmosphere of 5% CO2, 5% O2, and 90% N2. After this period the SYBR Green I dye-detergent mixture (100 μl) was added and the plates were incubated at room temperature for an hour in the dark and then placed in a 96-well fluorescence plate reader (Spectramax Gemini-EM, […]) for analysis with excitation and emission wavelength bands centered at 497 and 520 nm, respectively. The fluorescence readings were plotted against the logarithm of the drug concentration and curve fitting by nonlinear regression analysis (GraphPad Prism software) yielded the drug concentration that produced 50% of the observed decline relative to the maximum readings in drug-free control wells (IC50).
The compounds were screened for antiplasmodial activity in vitro against chloroquine (CQ) sensitive (D6), multidrug resistant (Dd2), and chloroquine/quinine/atovaquone (ATV)-resistant (Tm90.C2B) strains of P. falciparum. […] The following observations on the structure-activity relationships (SAR) can be made: • 1. It may be observed that the length of the 3-position side chain influences the antiplasmodial effect.

[1] = system: Toxoplasma gondii strain 2F; assay: Anti-T. gondii activity, 2F strain beta-galactosidase assay in HFF cells; assay type: cell-based; conditions: compared with the correlation seen for P. falciparum
Description: Determination of anti-T. gondii IC50 and TD50 values—use of the 2F strain. This method, which employs tachyzoites of Toxoplasma gondii strain 2F that constitutively expresses cytoplasmic Beta-galactosidase, has been described recently by Jones-Brando et al. (Jones-Brando, L., D'angelo, J., Posner, G H, and Yolken, R., 2006, In vitro inhibition of Toxoplasma gondii by four new derivatives of artemisinin, Antimicrobial Agents and Chemotherapy 50: 4206-8). […] Briefly, each drug was dissolved in ethanol or DMSO, as appropriate, at a concentration of 10 mM and diluted with complete Dulbecco's modified Eagle's medium (DMEM) to 1,000 μM. […] After this period, Triton X-100 is added to inactivate the parasite and the color reactions in the wells were read in a microplate reader. For anti-T. gondii IC50 determinations, the plates are read at 570-650 nm. The amount of absorbance (570-650 nm) in wells containing drug, parasites, and CPRG reagent is compared to that in control wells containing T. gondii, HFF cells and CPRG. The amount of absorbance in these wells is directly proportional to the amount of beta-galactosidase activity and thus correlative to the number of viable tachyzoites in each well. Thus, a decrease in the amount of absorbance indicates an inhibition of parasite growth. […]

[2] = system: Plasmodium falciparum strain Tm90.C2B (chloroquine/quinine/atovaquone-resistant); assay: In vitro antimalarial activity, MSF assay, strain Tm90.C2B; assay type: cell-based; conditions: Tm90.C2B compared with the other strains
Description: as §1
(§2) Three different laboratory strains of P. falciparum were cultured in human erythrocytes by standard methods under a low oxygen atmosphere (5% O2, 5% CO2, 90% N2) in an environmental chamber as described in Trager, W., and J. B. Jensen. 1976. Human malaria parasites in continuous culture. Science 193:673-5. […]
(§3) In vitro antimalarial activity of the compounds was assessed by the SYBR Green I fluorescence-based method (the “MSF assay”) described previously by Smilkstein, M., N. Sriwilaijaroen, J. X. Kelly, P. Wilairat, and M. Riscoe. […] Simple and inexpensive fluorescence-based technique for high-throughput antimalarial drug screening. […] After this period the SYBR Green I dye-detergent mixture (100 μl) was added and the plates were incubated at room temperature for an hour in the dark and then placed in a 96-well fluorescence plate reader (Spectramax Gemini-EM, […]) for analysis with excitation and emission wavelength bands centered at 497 and 520 nm, respectively. […]

P. yoelii = assay: In vivo efficacy in a murine malaria model of patent infection with P. yoelii (modified Thompson procedure)
Description: The activity of the ester, ELQ-125, against the blood stages was assessed using a modified Thompson procedure (Arba Ager, 1984). Rodent malaria models, vol. 68/1. Springer-Verlag, Berlin. Mice (female, CF1) were infected intravenously with 1-5 million P. yoelii parasitized erythrocytes from a donor animal. […] The drug was administered by gavage once daily for 3 days. On the 4th day blood films were prepared and the extent of parasitemia was determined microscopically. ED50 and ED90 values (mg/kg/day) were derived from the dose required to reduce the parasite burden by 50% and 90%, respectively, relative to drug-free controls. The procedures involved, together with all matters relating to the care and housing of the animals used in this study, were approved by the Portland VA Medical Center Institutional Animal Care and Use Committee (approval #0807).
Prodrugs containing a water-soluble pro-moiety that could be metabolically released after drug administration were designed and synthesized.

[3] = Water solubility and vehicle miscibility of the prodrug; assay type: physicochemical; conditions: prodrug compared with ELQ-121
[4] = system: Plasmodium falciparum strain D6 (chloroquine sensitive); assay: In vitro antimalarial activity, SYBR Green I fluorescence-based method (MSF assay), strain D6; assay type: cell-based; conditions: P. falciparum D6, 72 hrs
Description: as §1, §2, §3

[5] = mice, gavage once daily for 3 days in 100 μl NeoBee M5

For `CCCCCCCc1c(C)[nH]c2c(F)cc(F)cc2c1=O` [6,8-difluoro positional isomer], the “reduction of potency relative to ELQ-121” value (P. falciparum) was “≈ 2,000 fold”.

In the case of `CCCCCCCc1c(C)n(C)c2cc(F)cc(F)c2c1=O` [ELQ-134], the “growth inhibitory activity against Toxoplasma gondii (in words)” value [1] is reported as “enhanced growth inhibitory activity” and the “reduction of potency relative to ELQ-121” value (P. falciparum) is reported as “about 300 fold”.

`CCCCc1c(C)[nH]c2cc(OC)ccc2c1=O` [ELQ-115] showed an IC50 (P. falciparum) of about 0.03 µM.

With `CCCCCCCc1c(C)[nH]c2cc(OC)ccc2c1=O` [ELQ-100, endochin, reference compound] the IC50 (P. falciparum) was about 0.003 µM and the “cross-resistance / sensitivity of atovaquone-resistant Tm90.C2B (in words)” value [2] was “modest level of ATV cross-resistance”.

With `CCCCCCCc1c(C)[nH]c2ccccc2c1=O` [ELQ-127] the “in vitro antiplasmodial activity (SAR remark in words)” value (from here on “in vitro antiplasmodial activity”) (P. falciparum) was “equally active against all three parasite strains” and the “weakening of in vitro activity relative to endochin” value (P. falciparum; relative to endochin) was “roughly 5 fold”.

In the case of `CCCCCCCc1c(C)[nH]c2cc(O)ccc2c1=O` [ELQ-117], the “in vitro antiplasmodial activity” value (P. falciparum) is reported as “greatly diminishes antiplasmodial activity”.

For `CCCCCCCc1c(C)nc2cc(F)cc(F)c2c1OC(=O)OCCOCCOCCOCCOC` [ELQ-125], the “parasite status on follow-up” value (P. yoelii; 25 mg/kg/day oral, 3 days, followed until euthanized 10 days later) was “remained parasite-free”, the ED50 (P. yoelii; [5]) was 11 mg/kg/day and the ED90 (P. yoelii; [5]) was 22 mg/kg/day. The “in vivo efficacy (in words)” value (P. yoelii; prodrug compared with ELQ-121) was “greatly enhanced in vivo efficacy” and the water solubility [3] was “improved water solubility”.

With `CCCCCCCc1c(C)[nH]c2cc(F)cc(F)c2c1=O` [ELQ-121, 2-Methyl-3-(n-heptyl)-5.7-difluorquinolone] the “in vitro antiplasmodial activity” value (P. falciparum) was “one of the most potent compounds in the tested series”.

`CCCCCCCc1c(O)[nH]c2cc(OC)ccc2c1=O` [ELQ-106] showed an IC50 [4] of over 2.5 µM.

In the case of `CCCCCCCc1c(C)[nH]c2cc(Cl)cc(Cl)c2c1=O` [ELQ-124], the “in vitro antiplasmodial activity” value (P. falciparum) is reported as “weak in vitro activity”.

In the case of `CCCCCCCc1c(C)[nH]c2cc(Cl)ccc2c1=O` [ELQ-109], the “in vitro antiplasmodial activity” value (P. falciparum) is reported as “only a modest reduction in in vitro potency”.

With `CCCCCCCc1c(C)[nH]c2ccc(Cl)cc2c1=O` [ELQ-130] the “in vitro antiplasmodial activity” value (P. falciparum) was “modest reduction in antimalarial response” and the “cross-resistance / sensitivity of atovaquone-resistant Tm90.C2B (in words)” value [2] was “equal sensitivity”.

With `CCCCCCCc1c(C)nc2cc(F)cc(F)c2c1Cl` [ELQ-119] the “reduction of potency relative to ELQ-121” value (P. falciparum) was > 1,000 fold.

For `CCCCCCCc1c(C)[nH]c2cc(F)ccc2c1=O` [ELQ-120], the “in vitro antiplasmodial activity” value (P. falciparum) was “only a modest reduction in in vitro potency”.

With `COc1ccc2c(=O)c(CCCCCCCCCCC(F)(F)F)c(C)[nH]c2c1` [ELQ-103] the “IC50 values for all 3 tested strains (in words)” value (P. falciparum; D6, Dd2 and Tm90.C2B) was “low nanomolar range”.
